According to patent US20230077362A1 (CORTEVA AGRISCIENCE LLC, priority 2019, published 2023):

Columns and labels:
[1] = tested on: Beet Armyworm (Spodoptera exigua) ("BAW"), second instar larvae; assay: Bioassay on beet armyworm (BAW), 128-well diet tray assay; assay type: in vivo; details: Spodoptera exigua, read-out: BAW (Biological Results, rating)
Summary of the method: (§1)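 Each value represents average percent mortality from eight wells. Larvae were kept in clear-covered trays at 25° C. for five to seven days on a 14-hour light, 10-hour dark schedule before scoring.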

[2] = tested on: Cabbage Looper (Trichoplusia ni) ("CL"), second instar larvae; assay: Bioassay on cabbage looper (CL), 128-well diet tray assay; assay type: in vivo; details: Trichoplusia ni, read-out: CL (Biological Results, rating)
Summary of the method: as §1

## CCc1cc(-c2ncn(-c3ccc(OC(F)(F)F)cc3)n2)ccc1NC(=O)/N=C1\SCC(=O)N1c1cc(N(C)C)ccc1C(C)C [Compound J83, (Z)-1-(3-(5-(Dimethylamino)-2-isopropylphenyl)-4-oxothiazolidin-2-ylidene)-3-(2-ethyl-4-(1-(4-(trifluoromethoxy)phenyl)-1H-1,2,4-triazol-3-yl)phenyl)urea]
[1]
  pest or weed control at 50 µg/cm2: 50 to 100%
[2]
  pest or weed control at 50 µg/cm2: 50 to 100%

## CN(C)c1cccc(N2C(=O)CS/C2=N\C(=O)Nc2ccc(-c3ncn(-c4ccc(OC(F)(F)F)cc4)n3)cc2F)c1 [Compound J84, (Z)-1-(3-(3-(Dimethylamino)phenyl)-4-oxothiazolidin-2-ylidene)-3-(2-fluoro-4-(1-(4-(trifluoromethoxy)phenyl)-1H-1,2,4-triazol-3-yl)phenyl)urea]
[1]
  pest or weed control at 50 µg/cm2: 50 to 100%
[2]
  pest or weed control at 50 µg/cm2: 50 to 100%

## CNc1ccc(C(C)C)c(N2C(=O)CS/C2=N\C(=O)Nc2ccc(-c3ncn(-c4ccc(OC(F)(F)F)cc4)n3)cc2F)c1 [Compound J85, (Z)-1-(2-Fluoro-4-(1-(4-(trifluoromethoxy)phenyl)-1H-1,2,4-triazol-3-yl)phenyl)-3-(3-(2-isopropyl-5-(methylamino)phenyl)-4-oxothiazolidin-2-ylidene)urea]
[1]
  pest or weed control at 50 µg/cm2: 50 to 100%
[2]
  pest or weed control at 50 µg/cm2: 50 to 100%

## COc1cc(-c2ncn(-c3ccc(OC(F)(F)F)cc3)n2)ccc1NC(=O)/N=C1\SCC(=O)N1c1cc(N(C)C)ccc1C(C)C [Compound J89, (Z)-1-(3-(5-(Dimethylamino)-2-isopropylphenyl)-4-oxothiazolidin-2-ylidene)-3-(2-methoxy-4-(1-(4-(trifluoromethoxy)phenyl)-1H-1,2,4-triazol-3-yl)phenyl)urea]
[1]
  pest or weed control at 50 µg/cm2: 50 to 100%
[2]
  pest or weed control at 50 µg/cm2: 50 to 100%

## COc1cc(-c2ncn(-c3ccc(OC(F)(F)F)cc3)n2)ccc1NC(=O)/N=C1\SCC(=O)N1c1cc(C)ccc1C(C)OC (centres unmarked) [Compound J90, (Z)-1-(2-Methoxy-4-(1-(4-(trifluoromethoxy)phenyl)-1H-1,2,4-triazol-3-yl)phenyl)-3-(3-(2-(1-methoxyethyl)-5-methylphenyl)-4-oxothiazolidin-2-ylidene)urea]
[1]
  pest or weed control at 50 µg/cm2: 50 to 100%
[2]
  pest or weed control at 50 µg/cm2: 50 to 100%

## COc1cc(-c2ncn(-c3ccc(OC(F)(F)F)cc3)n2)ccc1NC(=O)/N=C1\SCC(=O)N1c1cc(C)ccc1OCCC(F)(F)F [Compound J91, (Z)-1-(2-Methoxy-4-(1-(4-(trifluoromethoxy)phenyl)-1H-1,2,4-triazol-3-yl)phenyl)-3-(3-(5-methyl-2-(3,3,3-trifluoropropoxy)phenyl)-4-oxothiazolidin-2-ylidene)urea]
[1]
  pest or weed control at 50 µg/cm2: 50 to 100%
[2]
  pest or weed control at 50 µg/cm2: 50 to 100%

## COc1ccc(OCCC(F)(F)F)c(N2C(=O)CS/C2=N\C(=O)Nc2ccc(-c3ncn(-c4ccc(OC(F)(F)F)cc4)n3)cc2F)c1 [Compound J92, (Z)-1-(2-Fluoro-4-(1-(4-(trifluoromethoxy)phenyl)-1H-1,2,4-triazol-3-yl)phenyl)-3-(3-(5-methoxy-2-(3,3,3-trifluoropropoxy)phenyl)-4-oxothiazolidin-2-ylidene)urea]
[1]
  pest or weed control at 50 µg/cm2: 50 to 100%
[2]
  pest or weed control at 50 µg/cm2: 50 to 100%

## Cc1ccc(OCCC(F)(F)F)c(N2C(=O)CS/C2=N\C(=O)Nc2ccc(-c3ncn(-c4ccc(OC(F)(F)F)cc4)n3)cc2C(C)C)c1 [Compound J93, (Z)-1-(2-Isopropyl-4-(1-(4-(trifluoromethoxy)phenyl)-1H-1,2,4-triazol-3-yl)phenyl)-3-(3-(5-methyl-2-(3,3,3-trifluoropropoxy)phenyl)-4-oxothiazolidin-2-ylidene)urea]
[1]
  pest or weed control at 50 µg/cm2: 50 to 100%
[2]
  pest or weed control at 50 µg/cm2: 50 to 100%

## COC(C)c1ccc(C)cc1N1C(=O)CS/C1=N\C(=O)Nc1ccc(-c2ncn(-c3ccc(OC(F)(F)F)cc3)n2)cc1C(C)C (centres unmarked) [Compound J94, (Z)-1-(2-Isopropyl-4-(1-(4-(trifluoromethoxy)phenyl)-1H-1,2,4-triazol-3-yl)phenyl)-3-(3-(2-(1-methoxyethyl)-5-methylphenyl)-4-oxothiazolidin-2-ylidene)urea]
[1]
  pest or weed control at 50 µg/cm2: 50 to 100%
[2]
  pest or weed control at 50 µg/cm2: 50 to 100%

## Cc1ccc(C(C)C)c(N2C(=O)CS/C2=N\C(=O)Nc2c(C)cc(-c3ncn(-c4ccc(OC(F)(F)F)cc4)n3)cc2C)c1 [Compound J95, (Z)-1-(2,6-Dimethyl-4-(1-(4-(trifluoromethoxy)phenyl)-1H-1,2,4-triazol-3-yl)phenyl)-3-(3-(2-isopropyl-5-methylphenyl)-4-oxothiazolidin-2-ylidene)urea]
[1]
  pest or weed control at 50 µg/cm2: 50 to 100%
[2]
  pest or weed control at 50 µg/cm2: 50 to 100%

## Cc1cc(-c2ncn(-c3ccc(OC(F)(F)F)cc3)n2)cc(C)c1NC(=O)/N=C1\SCC(=O)N1c1cc(N(C)C)ccc1C(C)C [Compound J96, (Z)-1-(2,6-Dimethyl-4-(1-(4-(trifluoromethoxy)phenyl)-1H-1,2,4-triazol-3-yl)phenyl)-3-(3-(5-(dimethylamino)-2-isopropylphenyl)-4-oxothiazolidin-2-ylidene)urea]
[1]
  pest or weed control at 50 µg/cm2: 50 to 100%
[2]
  pest or weed control at 50 µg/cm2: 50 to 100%

## COC(C)c1ccc(C)cc1N1C(=O)CS/C1=N\C(=O)Nc1c(C)cc(-c2ncn(-c3ccc(OC(F)(F)F)cc3)n2)cc1C (centres unmarked) [Compound J97, (Z)-1-(2,6-Dimethyl-4-(1-(4-(trifluoromethoxy)phenyl)-1H-1,2,4-triazol-3-yl)phenyl)-3-(3-(2-(1-methoxyethyl)-5-methylphenyl)-4-oxothiazolidin-2-ylidene)urea]
[1]
  pest or weed control at 50 µg/cm2: 50 to 100%
[2]
  pest or weed control at 50 µg/cm2: 50 to 100%

## COc1ccc(C(C)C)c(N2C(=O)CS/C2=N\C(=O)Nc2c(C)cc(-c3ncn(-c4ccc(OC(F)(F)F)cc4)n3)cc2C)c1 [Compound J98, (Z)-1-(2,6-Dimethyl-4-(1-(4-(trifluoromethoxy)phenyl)-1H-1,2,4-triazol-3-yl)phenyl)-3-(3-(2-isopropyl-5-methoxyphenyl)-4-oxothiazolidin-2-ylidene)urea]
[1]
  pest or weed control at 50 µg/cm2: 50 to 100%
[2]
  pest or weed control at 50 µg/cm2: 50 to 100%

## Cc1ccc(C(C)C)c(N2C(=O)CS/C2=N\C(=O)Nc2ccc(-c3ncn(-c4ccc(OC(F)(F)F)cc4)n3)cc2C(C)C)c1 [Compound J99, (Z)-1-(2-Isopropyl-4-(1-(4-(trifluoromethoxy)phenyl)-1H-1,2,4-triazol-3-yl)phenyl)-3-(3-(2-isopropyl-5-methylphenyl)-4-oxothiazolidin-2-ylidene)urea]
[1]
  pest or weed control at 50 µg/cm2: 50 to 100%
[2]
  pest or weed control at 50 µg/cm2: 50 to 100%

## COc1ccc(C(C)C)c(N2C(=O)CS/C2=N\C(=O)Nc2ccc(-c3ncn(-c4ccc(OC(F)(F)F)cc4)n3)cc2C(C)C)c1 [Compound J100, (Z)-1-(2-Isopropyl-4-(1-(4-(trifluoromethoxy)phenyl)-1H-1,2,4-triazol-3-yl)phenyl)-3-(3-(2-isopropyl-5-methoxyphenyl)-4-oxothiazolidin-2-ylidene)urea]
[1]
  pest or weed control at 50 µg/cm2: 50 to 100%
[2]
  pest or weed control at 50 µg/cm2: 50 to 100%

## CC(C)c1cc(-c2ncn(-c3ccc(OC(F)(F)F)cc3)n2)ccc1NC(=O)/N=C1\SCC(=O)N1c1cc(N(C)C)ccc1C(C)C [Compound J101, (Z)-1-(3-(5-(Dimethylamino)-2-isopropylphenyl)-4-oxothiazolidin-2-ylidene)-3-(2-isopropyl-4-(1-(4-(trifluoromethoxy)phenyl)-1H-1,2,4-triazol-3-yl)phenyl)urea]
[1]
  pest or weed control at 50 µg/cm2: 50 to 100%
[2]
  pest or weed control at 50 µg/cm2: 50 to 100%
